The source made the active and inactive calls. No cut-off for these calls is given here.
Assays:
BaF3 [1] = assay: cells; details: Mus musculus, BaF3, 72 h
[2] = target: Hepatocyte growth factor receptor (Homo sapiens, UniProt P08581, D1228N); assay: Inhibition of N-terminal GST-tagged recombinant human c-MET D1228N mutant (956 to end residues) extracted from baculovirus infected Sf9 cells using 5-FAM-KKKKEEIYFFF-CONH2 as substrate preincubated for 30 mins followed by ATP addition measured after 60 mins by fluorescence-based microfluidic mobility shift assay
Cytochrome P450 3A4 = Cytochrome P450 3A4 (Homo sapiens, UniProt P08684); assay: Inhibition of CYP3A4 (unknown origin); type: ADME; details: human
Chain of Cytochrome P450 3A4 (P08684 whole entry): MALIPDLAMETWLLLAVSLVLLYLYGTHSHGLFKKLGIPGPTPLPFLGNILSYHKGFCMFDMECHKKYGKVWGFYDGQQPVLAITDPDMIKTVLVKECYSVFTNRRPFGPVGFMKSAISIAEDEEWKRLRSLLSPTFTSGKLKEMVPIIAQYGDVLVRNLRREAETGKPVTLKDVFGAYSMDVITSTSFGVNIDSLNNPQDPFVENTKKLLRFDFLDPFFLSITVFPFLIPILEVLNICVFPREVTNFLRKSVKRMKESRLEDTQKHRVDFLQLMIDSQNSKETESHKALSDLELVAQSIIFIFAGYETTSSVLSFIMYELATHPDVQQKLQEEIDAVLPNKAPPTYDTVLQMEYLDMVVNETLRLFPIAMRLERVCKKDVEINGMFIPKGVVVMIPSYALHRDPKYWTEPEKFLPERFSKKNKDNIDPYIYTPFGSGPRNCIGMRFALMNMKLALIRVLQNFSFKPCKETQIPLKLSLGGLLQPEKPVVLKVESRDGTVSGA

BaF3 [3] = assay: Antitumor activity against mouse BaF3 cells harboring TPR-D1228N mutant cells allografted in athymic BALB/c nude mouse at 60 mg/kg, po bid treated for 10 days relative to control; type: functional; details: BaF3, 240 h, time 10 day, read-out: TGI
Mus musculus [4] = assay: In vivo inhibition of MET phosphorylation in human EBC-1 cells xenografted in athymic BALB/c nude mouse at 20 to 60 mg/kg, po measured after 12 hrs post-dose; type: functional, organism-based; details: dose 20-60 mg/kg
BaF3 [5] = assay: cells; details: Mus musculus, BaF3, 72 h; remark: listed apart in the source
[6] = Clearance in male Beagle dog at 1 mg/kg, iv; type: ADME, organism-based, Canis lupus familiaris; details: in vivo
[7] = target: Hepatocyte growth factor receptor (Homo sapiens, UniProt P08581); assay: Inhibition of N-terminal GST-tagged wild-type human c-MET (956 to 1390 residues) extracted from baculovirus infected Sf21 cells using 5-FAM-KKKKEEIYFFF-CONH2 as substrate preincubated for 30 mins followed by ATP addition measured after 60 mins by fluorescence-based microfluidic mobility shift assay
Chain of Hepatocyte growth factor receptor (Homo sapiens, UniProt P08581) (P08581 whole entry, the tested form may be a part): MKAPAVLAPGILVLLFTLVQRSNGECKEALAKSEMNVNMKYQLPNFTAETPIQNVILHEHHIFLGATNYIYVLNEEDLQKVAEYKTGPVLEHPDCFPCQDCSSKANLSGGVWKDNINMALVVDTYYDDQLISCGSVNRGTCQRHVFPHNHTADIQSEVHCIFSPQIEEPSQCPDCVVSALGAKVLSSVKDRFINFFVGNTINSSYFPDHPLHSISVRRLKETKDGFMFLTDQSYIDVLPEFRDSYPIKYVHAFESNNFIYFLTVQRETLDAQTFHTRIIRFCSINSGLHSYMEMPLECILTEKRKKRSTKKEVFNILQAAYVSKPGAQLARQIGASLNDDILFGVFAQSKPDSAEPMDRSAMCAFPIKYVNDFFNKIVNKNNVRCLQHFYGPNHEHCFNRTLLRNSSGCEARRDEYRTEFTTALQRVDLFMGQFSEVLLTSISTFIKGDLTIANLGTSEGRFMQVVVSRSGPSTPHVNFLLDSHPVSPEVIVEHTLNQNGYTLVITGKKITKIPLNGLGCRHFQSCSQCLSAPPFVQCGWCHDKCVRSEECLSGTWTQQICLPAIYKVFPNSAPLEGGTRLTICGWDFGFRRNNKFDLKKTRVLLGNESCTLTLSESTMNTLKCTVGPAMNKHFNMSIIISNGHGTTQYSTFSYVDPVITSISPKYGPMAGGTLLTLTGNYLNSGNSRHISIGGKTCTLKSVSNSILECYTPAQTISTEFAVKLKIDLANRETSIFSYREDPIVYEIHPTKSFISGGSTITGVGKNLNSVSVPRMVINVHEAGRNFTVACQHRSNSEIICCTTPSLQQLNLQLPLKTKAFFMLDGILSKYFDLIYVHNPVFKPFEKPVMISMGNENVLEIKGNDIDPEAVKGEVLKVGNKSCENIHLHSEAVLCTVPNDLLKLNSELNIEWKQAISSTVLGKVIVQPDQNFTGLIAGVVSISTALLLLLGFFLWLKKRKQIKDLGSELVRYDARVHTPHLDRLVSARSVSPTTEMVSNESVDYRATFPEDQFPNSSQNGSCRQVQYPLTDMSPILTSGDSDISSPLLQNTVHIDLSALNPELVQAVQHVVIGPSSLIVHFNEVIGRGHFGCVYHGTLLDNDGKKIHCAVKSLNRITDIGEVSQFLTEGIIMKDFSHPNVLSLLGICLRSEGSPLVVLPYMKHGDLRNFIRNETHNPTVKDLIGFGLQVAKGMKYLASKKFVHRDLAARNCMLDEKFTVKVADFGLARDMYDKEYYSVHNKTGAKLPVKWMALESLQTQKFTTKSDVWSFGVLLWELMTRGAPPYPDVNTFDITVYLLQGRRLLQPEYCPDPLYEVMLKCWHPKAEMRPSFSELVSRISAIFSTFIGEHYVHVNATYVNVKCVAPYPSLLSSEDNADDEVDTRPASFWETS

[8] = Oral bioavailability in Balb/c mouse at 10 mg/kg; type: ADME, organism-based; details: in vivo
[9] = Antitumor activity against human LU2503 cells xenografted in athymic BALB/c nude mouse at 6 mg/kg, po bid treated for 14 days relative to control; type: functional; details: LU2503, 336 h, time 14 day, read-out: TGI
EBC-1 [10] = assay: Antitumor activity against human EBC-1 cells xenografted in athymic BALB/c nude mouse at 20 mg/kg, po bid treated for 21 days relative to control; type: functional; details: EBC-1, 504 h, time 21 day, read-out: TGI
cells = details: Mus musculus, BaF3/TRP-Met, 72 h
EBC-1 [11] = assay: Antitumor activity against human EBC-1 cells xenografted in athymic BALB/c nude mouse at 2 mg/kg, po bid treated for 21 days relative to control; type: functional; details: EBC-1, 504 h, time 21 day, read-out: TGI
hERG [12] = target: T1, hERG (Homo sapiens, UniProt Q12809); assay: Inhibition of hERG at 10 uM by CEREP analysis relative to control; type: toxicity
T1 sequence (Q12809 whole entry): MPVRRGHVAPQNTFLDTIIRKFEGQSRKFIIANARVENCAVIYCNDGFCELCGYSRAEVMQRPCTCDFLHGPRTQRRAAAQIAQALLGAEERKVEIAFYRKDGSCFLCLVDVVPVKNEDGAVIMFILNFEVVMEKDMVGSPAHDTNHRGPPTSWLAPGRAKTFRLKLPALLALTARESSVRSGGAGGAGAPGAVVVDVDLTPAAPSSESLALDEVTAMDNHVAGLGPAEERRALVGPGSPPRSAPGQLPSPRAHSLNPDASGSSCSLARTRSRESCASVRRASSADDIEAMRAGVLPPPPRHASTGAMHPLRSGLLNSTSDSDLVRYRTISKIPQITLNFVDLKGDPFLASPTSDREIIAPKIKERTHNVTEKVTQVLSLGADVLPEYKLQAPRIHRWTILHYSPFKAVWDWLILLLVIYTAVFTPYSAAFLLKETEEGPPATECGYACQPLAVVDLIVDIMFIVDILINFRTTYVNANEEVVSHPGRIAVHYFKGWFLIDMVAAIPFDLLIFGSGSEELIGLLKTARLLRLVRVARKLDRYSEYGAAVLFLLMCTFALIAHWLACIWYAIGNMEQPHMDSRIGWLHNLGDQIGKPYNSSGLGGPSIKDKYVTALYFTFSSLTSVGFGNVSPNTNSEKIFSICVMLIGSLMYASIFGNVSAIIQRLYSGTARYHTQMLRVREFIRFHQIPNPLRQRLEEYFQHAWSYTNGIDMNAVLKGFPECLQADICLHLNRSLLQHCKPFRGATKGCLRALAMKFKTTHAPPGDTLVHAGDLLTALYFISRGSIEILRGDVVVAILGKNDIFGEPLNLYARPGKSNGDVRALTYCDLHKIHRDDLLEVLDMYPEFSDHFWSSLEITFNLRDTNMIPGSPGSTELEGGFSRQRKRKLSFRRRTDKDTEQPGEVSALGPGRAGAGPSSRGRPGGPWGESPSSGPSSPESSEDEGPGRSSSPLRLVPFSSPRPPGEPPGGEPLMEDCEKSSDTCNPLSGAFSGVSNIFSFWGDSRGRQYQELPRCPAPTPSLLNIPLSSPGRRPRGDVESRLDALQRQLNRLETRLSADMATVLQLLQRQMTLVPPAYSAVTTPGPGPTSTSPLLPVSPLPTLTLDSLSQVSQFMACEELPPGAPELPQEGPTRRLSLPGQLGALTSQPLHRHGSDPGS

Mus musculus [13] = assay: In vivo inhibition of MET phosphorylation in human LU2503 cells xenografted in athymic BALB/c nude mouse at 20 to 60 mg/kg, po measured after 12 hrs post-dose; type: functional, organism-based; details: dose 20-60 mg/kg
[14] = Toxicity in athymic BALB/c nude mouse xenografted with human EBC-1 cells assessed as body weight loss at 2 to 60 mg/kg, po bid treated for 10 to 21 days; type: organism-based; details: in vivo, dose lower 2 mg/kg, time lower 10 day, dose upper 60 mg/kg, time upper 21 day
[15] = target: 5-hydroxytryptamine receptor 1B (Homo sapiens) (UniProt P28222); assay: Inhibition of 5-HT1B receptor (unknown origin) at 10 uM by CEREP analysis relative to control
Chain of 5-hydroxytryptamine receptor 1B (Homo sapiens) (P28222 whole entry): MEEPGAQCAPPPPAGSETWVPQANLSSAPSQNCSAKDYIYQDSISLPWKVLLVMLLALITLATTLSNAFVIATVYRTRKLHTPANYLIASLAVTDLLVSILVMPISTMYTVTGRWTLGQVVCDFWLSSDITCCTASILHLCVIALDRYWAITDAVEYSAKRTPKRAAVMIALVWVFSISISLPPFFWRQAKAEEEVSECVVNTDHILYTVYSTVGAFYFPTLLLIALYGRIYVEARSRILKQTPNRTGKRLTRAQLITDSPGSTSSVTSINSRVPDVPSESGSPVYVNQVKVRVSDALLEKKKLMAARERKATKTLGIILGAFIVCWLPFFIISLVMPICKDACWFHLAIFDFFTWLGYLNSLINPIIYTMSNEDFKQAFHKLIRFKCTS

BaF3 [16] = assay: cells; details: Mus musculus, BaF3, 72 h; remark: listed apart in the source
[17] = Half life in female Balb/c mouse at 1 mg/kg, iv; type: ADME, organism-based; details: in vivo
[18] = target: Macrophage-stimulating protein receptor (Homo sapiens) (UniProt Q04912); assay: Inhibition of wild-type RON (unknown origin) at 100 nM by kinome selectivity analysis relative to control
Mus musculus [19] = assay: In vivo inhibition of MET phosphorylation in human LU2503 cells xenografted in athymic BALB/c nude mouse administered orally measured after 1 hr post-dose; type: functional, organism-based; details: dose 2-60 mg/kg, route po
hERG [20] = target: T1, hERG; assay: Inhibition of hERG; type: toxicity
[21] = target: 3',5'-cyclic-AMP phosphodiesterase 4D (Homo sapiens) (UniProt Q08499); assay: Inhibition of PDE4D2 (unknown origin) at 10 uM by CEREP analysis relative to control
Chain of 3',5'-cyclic-AMP phosphodiesterase 4D (Homo sapiens) (Q08499 whole entry): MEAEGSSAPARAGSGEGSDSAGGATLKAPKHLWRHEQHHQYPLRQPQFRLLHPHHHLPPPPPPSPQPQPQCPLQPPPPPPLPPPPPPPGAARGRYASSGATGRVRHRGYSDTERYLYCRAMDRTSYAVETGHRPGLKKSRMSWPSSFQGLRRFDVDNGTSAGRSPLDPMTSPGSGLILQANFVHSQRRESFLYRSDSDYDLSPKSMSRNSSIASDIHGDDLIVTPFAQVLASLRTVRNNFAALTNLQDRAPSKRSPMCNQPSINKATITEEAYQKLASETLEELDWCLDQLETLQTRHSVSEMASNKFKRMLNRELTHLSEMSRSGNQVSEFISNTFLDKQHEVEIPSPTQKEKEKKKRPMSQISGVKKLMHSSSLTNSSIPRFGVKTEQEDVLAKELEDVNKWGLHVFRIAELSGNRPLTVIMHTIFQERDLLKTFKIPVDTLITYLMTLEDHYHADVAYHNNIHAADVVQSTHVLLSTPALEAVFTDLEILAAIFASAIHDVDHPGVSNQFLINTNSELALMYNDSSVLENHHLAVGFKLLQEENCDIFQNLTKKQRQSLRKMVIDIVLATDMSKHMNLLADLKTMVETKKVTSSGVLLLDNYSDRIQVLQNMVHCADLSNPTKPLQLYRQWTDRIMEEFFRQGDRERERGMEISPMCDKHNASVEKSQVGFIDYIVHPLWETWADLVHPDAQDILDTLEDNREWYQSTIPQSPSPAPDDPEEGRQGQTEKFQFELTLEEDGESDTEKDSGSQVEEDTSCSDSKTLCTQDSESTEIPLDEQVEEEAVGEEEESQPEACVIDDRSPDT

Homo sapiens [22] = species on record: Homo sapiens; assay: Inhibition of c-MET D1228 mutant (unknown origin) at 100 nM in presence of ATP by HotSpot Kinome Selectivity analysis
[23] = Antitumor activity against human LU2503 cells xenografted in athymic BALB/c nude mouse at 60 mg/kg, po bid treated for 14 days relative to control; type: functional; details: LU2503, 336 h, time 14 day, read-out: TGI
Homo sapiens [24] = species on record: Homo sapiens; assay: Inhibition of sodium channel site 2 (unknown origin) at 10 uM by CEREP analysis relative to control
Homo sapiens [25] = species on record: Homo sapiens; assay: Inhibition of c-MET Y1230 mutant (unknown origin) at 100 nM in presence of ATP by HotSpot Kinome Selectivity analysis
BaF3 [26] = assay: Antitumor activity against mouse BaF3 cells harboring TPR-D1228N mutant cells allografted in athymic BALB/c nude mouse at 20 mg/kg, po bid treated for 10 days relative to control; type: functional; details: BaF3, 240 h, time 10 day, read-out: TGI
[27] = target: Sodium-dependent serotonin transporter (Homo sapiens) (UniProt P31645); assay: Inhibition of SERT (unknown origin) at 10 uM by CEREP analysis relative to control
Chain of Sodium-dependent serotonin transporter (Homo sapiens) (P31645 whole entry, looked up): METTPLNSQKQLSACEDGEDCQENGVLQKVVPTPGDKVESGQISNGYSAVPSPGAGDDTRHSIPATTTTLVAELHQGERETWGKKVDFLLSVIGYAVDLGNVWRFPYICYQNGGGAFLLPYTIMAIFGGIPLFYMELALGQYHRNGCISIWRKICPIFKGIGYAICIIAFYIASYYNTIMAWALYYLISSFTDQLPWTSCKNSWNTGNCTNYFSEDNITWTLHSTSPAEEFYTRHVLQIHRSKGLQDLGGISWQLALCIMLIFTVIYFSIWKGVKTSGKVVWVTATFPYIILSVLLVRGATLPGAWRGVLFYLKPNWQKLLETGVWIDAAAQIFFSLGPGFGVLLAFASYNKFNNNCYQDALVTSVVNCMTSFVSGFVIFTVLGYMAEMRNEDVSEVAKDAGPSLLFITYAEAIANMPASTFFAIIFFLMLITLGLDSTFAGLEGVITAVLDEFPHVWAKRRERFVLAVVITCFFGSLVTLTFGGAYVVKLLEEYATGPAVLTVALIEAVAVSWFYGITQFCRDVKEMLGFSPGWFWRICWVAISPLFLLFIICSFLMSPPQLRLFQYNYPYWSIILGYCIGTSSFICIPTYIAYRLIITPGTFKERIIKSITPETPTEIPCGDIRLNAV

[28] = Clearance in female Balb/c mouse at 1 mg/kg, iv; type: ADME, organism-based; details: in vivo
EBC-1 [29] = assay: Antitumor activity against human EBC-1 cells xenografted in athymic BALB/c nude mouse at 6 mg/kg, po bid treated for 21 days relative to control; type: functional; details: EBC-1, 504 h, time 21 day, read-out: TGI
[30] = Half life in male Beagle dog at 1 mg/kg, iv; type: ADME, organism-based, Canis lupus familiaris; details: in vivo
[31] = Toxicity in dog assessed as drug tolerance measured for 28 days; design: species or system Canis lupus familiaris; details: in vivo, 672 h, time 28 day

## COc1cc2nccc(Oc3c(F)cc(NC(=O)c4cnccc4OC)cc3F)c2cc1O[C@@H](C)CO
BaF3 [1]
  EC50: 13 nM
[2]
  IC50: 0.2 nM
Cytochrome P450 3A4
  inhibition (INH): Not_active
BaF3 [3]
  inhibition in vivo at 60 mg/kg: 128%
Mus musculus [4]
  inhibition: Active
BaF3 [5]
  EC50: 9.1 nM
[6]
  clearance: 3.5 mL/min/kg
[7]
  IC50: 0.2 nM
[8]
  bioavailability: 100%
[9]
  inhibition in vivo at 6 mg/kg: 77%
EBC-1 [10]
  inhibition in vivo at 20 mg/kg: 88%
cells
  EC50: 11 nM
EBC-1 [11]
  inhibition in vivo at 2 mg/kg: 25%
hERG [12]
  inhibition at 10 µM: 18%
Mus musculus [13]
  inhibition: Active
[14]
  Activity: Non-toxic
[15]
  inhibition: -3%
BaF3 [16]
  EC50: 0.7 nM
[17]
  half-life: 1.8 h
[18]
  inhibition: > 90%
Mus musculus [19]
  inhibition: Dose-dependent-effect
hERG [20]
  IC20: 10000 nM
[21]
  inhibition: 65%
Homo sapiens [22]
  inhibition: 0%
[23]
  inhibition in vivo at 60 mg/kg: 113%
Homo sapiens [24]
  inhibition: 40%
Homo sapiens [25]
  inhibition: 0%
BaF3 [26]
  inhibition in vivo at 20 mg/kg: 89%
[27]
  inhibition: 1%
[28]
  clearance: 14.3 mL/min/kg
EBC-1 [29]
  inhibition in vivo at 6 mg/kg: 52%
[30]
  half-life: 6.3 h
[31]
  Activity: Non-toxic

Reference: ChEMBL document CHEMBL6182925 (J Med Chem, 2025)
